Experiment: Stroke statin response (SSR) in the PROSPER pravastatin trial: pravastatin-treated versus placebo-treated, by SNP genotype
Type: in vivo, human
Source text: (hCV26505812) for association with SSR in CARE (Table 37) and PROSPER (Table 38), including both unadjusted and adjusted analyses (adjusted for factors such as age, gender, smoking status, hypertension, diabetes, BMI, and LDL and HDL levels). Table 37 provides results in CARE, and Table 38 provides results in PROSPER (whether each analysis is unadjusted or adjusted is indicated in the “adjust” column in Table 37, or by “unadj” and “adj” column labels in Tables 38). With respect to Tables 22-32 and 37-38, the columns labeled “Genotype” (in Tables 22-28 and 37), “Geno_Placebo” (in Tables 29-30 and 38), and “Geno_Resp” (in Tables 31-32 and 38) indicate the genotype which the given stroke risk or SSR results correspond to. […] In Tables 29-32 and 38, the columns labeled “LOWER_PLACEBO” and “UPPER_PLACEBO” (Tables 29-30 and 38), and “LOWER_RESP” and “UPPER_RESP” (Tables 31-32 and 38), refer to the lower and upper 95% confidence intervals for the hazard ratios. See Example Six below for further information relating to Tables 22-32 and 37-38. […] As used herein, the term “benefit” (with respect to a preventive or therapeutic drug treatment) is defined as achieving a reduced risk for a disease that the drug is intended to treat or prevent (e.g., stroke) by administrating the drug treatment, compared with the risk for the disease in the absence of receiving the drug treatment (or receiving a placebo in lieu of the drug treatment) for the same genotype. The term “benefit” may be used herein interchangeably with terms such as “respond positively” or “positively respond”. For stroke risk and statin response associations based on samples from the CARE and PROSPER trials described herein, stroke risk is assessed by comparing the risk of stroke for a given genotype with the risk of stroke for a reference genotype either in the placebo arm of the trial or in the whole study population of the trial, and statin response is assessed by comparing the risk of stroke in the pravastatin arm of the trial with the risk of stroke in the placebo arm of the trial for the same genotype. […] Example Five above describes the analysis of these 61 SNPs plus 17 additional SNPs in the German West Study. […] In PROSPER, SNPs were analyzed for association with stroke risk or SSR, in the whole study cohort (strata: “ALL”), or in the subgroup with a history of CVD (strata: “hist”) or without a CVD history (strata: “no hist”). […] Also in the CARE and PROSPER trials, the chromosome 9p21 SNP […] (hCV26505812) was analyzed further for association with SSR, including unadjusted and adjusted analysis. Adjusted analysis in CARE (Table 37) was adjusted for age, gender, smoking status, hypertension, diabetes, body mass index (BMI), and LDL and HDL levels, and adjusted analysis in PROSPER (Table 38) was adjusted for country, gender, age, LDL, HDL, smoking status (current vs. past or never), history of hypertension, and diabetes. Table 37 provides results in CARE, and Table 38 provides results in PROSPER (whether each analysis is unadjusted or adjusted is indicated in the “adjust” column in Table 37, or by “unadj” and “adj” column labels in Tables 38). All the p-values (including Pint values) provided in Tables 37-38 are two-sided p-values.

[1] = hCV2169762 rs1804689 HPS1, GENO_RESP GG, MODE GEN, STRATA no hist
[2] = hCV2169762 rs1804689 HPS1, GENO_RESP GT, MODE GEN, STRATA hist
[3] = hCV2169762 rs1804689 HPS1, GENO_RESP GT, MODE GEN, STRATA no hist
[4] = hCV2169762 rs1804689 HPS1, GENO_RESP TT, MODE GEN, STRATA no hist
[5] = hCV2442143 rs12544854 ASAH1, GENO_RESP CC + CT, MODE REC, STRATA no hist
[6] = hCV2442143 rs12544854 ASAH1, GENO_RESP TT + CT, MODE DOM, STRATA hist
[7] = hCV26505812 rs10757274 C9p21, GENO_RESP AA, MODE GEN, STRATA ALL
[8] = hCV26505812 rs10757274 C9p21, GENO_RESP AA, MODE GEN, STRATA no hist
[9] = hCV26505812 rs10757274 C9p21, GENO_RESP AG, MODE GEN, STRATA ALL
[10] = hCV26505812 rs10757274 C9p21, GENO_RESP AG, MODE GEN, STRATA no hist
[11] = hCV26505812 rs10757274 C9p21, GENO_RESP GG + AG, MODE DOM, STRATA ALL
[12] = hCV26505812 rs10757274 C9p21, GENO_RESP GG + AG, MODE DOM, STRATA no hist
[13] = hCV26505812 rs10757274 C9p21, GENO_RESP GG, MODE GEN, STRATA ALL
[14] = hCV26505812 rs10757274 C9p21, GENO_RESP GG, MODE GEN, STRATA no hist
[15] = hCV27511436 rs3750145 FZD1, GENO_RESP CC + CT, MODE DOM, STRATA no hist
[16] = hCV27511436 rs3750145 FZD1, GENO_RESP CC, MODE GEN, STRATA no hist
[17] = hCV27511436 rs3750145 FZD1, GENO_RESP CT, MODE GEN, STRATA no hist
[18] = hCV27511436 rs3750145 FZD1, GENO_RESP TT, MODE GEN, STRATA no hist
[19] = hCV27830265 rs12762303 ALOX5, GENO_RESP GG + AG, MODE DOM, STRATA no hist
[20] = hCV29539757 rs10110659 KCNQ3, GENO_RESP AA, MODE GEN, STRATA hist
[21] = hCV29539757 rs10110659 KCNQ3, GENO_RESP AC, MODE GEN, STRATA hist
[22] = hCV29539757 rs10110659 KCNQ3, GENO_RESP CC, MODE GEN, STRATA hist

SMILES: CC[C@H](C)C(=O)O[C@H]1C[C@H](O)C=C2C=C[C@H](C)[C@H](CC[C@@H](O)C[C@@H](O)CC(=O)O)[C@H]21 [pravastatin]
- HR_RESP (hazard ratio, pravastatin-treated versus placebo-treated) (hCV2169762 rs1804689 HPS1, GENO_RESP GG, MODE GEN, STRATA hist): 1.104
- EVENTS_RESP [1]: 30
- HR_RESP (hazard ratio, pravastatin-treated versus placebo-treated) [1]: 0.659
- EVENTS_RESP [2]: 47
- HR_RESP (hazard ratio, pravastatin-treated versus placebo-treated) [2]: 0.9425
- EVENTS_RESP [3]: 47
- HR_RESP (hazard ratio, pravastatin-treated versus placebo-treated) [3]: 1.268
- EVENTS_RESP (hCV2169762 rs1804689 HPS1, GENO_RESP TT + GT, MODE DOM, STRATA no hist): 57
- HR_RESP (hazard ratio, pravastatin-treated versus placebo-treated) (hCV2169762 rs1804689 HPS1, GENO_RESP TT, MODE GEN, STRATA hist): 0.3365
- EVENTS_RESP [4]: 10
- HR_RESP (hazard ratio, pravastatin-treated versus placebo-treated) [4]: 1.275
- EVENTS_RESP [5]: 72
- HR_RESP (hazard ratio, pravastatin-treated versus placebo-treated) [5]: 1.087
- EVENTS_RESP [6]: 88
- HR_RESP (hazard ratio, pravastatin-treated versus placebo-treated) [6]: 1.043
- EVENTS_RESP [7]: 56
- HR_RESP (hazard ratio, pravastatin-treated versus placebo-treated) [7]: 1.33
- EVENTS_RESP [8]: 28
- HR_RESP (hazard ratio, pravastatin-treated versus placebo-treated) [8]: 1.57
- EVENTS_RESP [9]: 94
- HR_RESP (hazard ratio, pravastatin-treated versus placebo-treated) [9]: 0.7769
- EVENTS_RESP [10]: 35
- HR_RESP (hazard ratio, pravastatin-treated versus placebo-treated) [10]: 0.6977
- EVENTS_RESP [11]: 145
- HR_RESP (hazard ratio, pravastatin-treated versus placebo-treated) [11]: 0.8638
- EVENTS_RESP [12]: 59
- HR_RESP (hazard ratio, pravastatin-treated versus placebo-treated) [12]: 0.8132
- EVENTS_RESP [13]: 51
- HR_RESP (hazard ratio, pravastatin-treated versus placebo-treated) [13]: 1.082
- EVENTS_RESP [14]: 24
- HR_RESP (hazard ratio, pravastatin-treated versus placebo-treated) [14]: 1.068
- EVENTS_RESP [15]: 27
- HR_RESP (hazard ratio, pravastatin-treated versus placebo-treated) [15]: 1.388
- EVENTS_RESP [16]: 1
- HR_RESP (hazard ratio, pravastatin-treated versus placebo-treated) [16]: 0.3492
- EVENTS_RESP [17]: 26
- HR_RESP (hazard ratio, pravastatin-treated versus placebo-treated) [17]: 1.575
- EVENTS_RESP [18]: 60
- HR_RESP (hazard ratio, pravastatin-treated versus placebo-treated) [18]: 0.8524
- EVENTS_RESP [19]: 25
- HR_RESP (hazard ratio, pravastatin-treated versus placebo-treated) [19]: 1.479
- EVENTS_RESP [20]: 7
- HR_RESP (hazard ratio, pravastatin-treated versus placebo-treated) [20]: 0.4115
- EVENTS_RESP [21]: 44
- HR_RESP (hazard ratio, pravastatin-treated versus placebo-treated) [21]: 0.9946
- EVENTS_RESP (hCV29539757 rs10110659 KCNQ3, GENO_RESP CC + AC, MODE REC, STRATA hist): 106
- EVENTS_RESP [22]: 62
- HR_RESP (hazard ratio, pravastatin-treated versus placebo-treated) [22]: 1.016
